The source of these data is PMC13476077, “Systematic comparison of temporal hepatotoxicant-induced gene network responses across 3 liver test systems” (Toxicological Sciences, 2026).

A word on the Vss: it is a proportionality between amount in the body and measured concentration, not a real space. A high value points to wide distribution into tissue.

This data set is described as follows: Pharmacokinetic properties from the literature. The data set is classed as in vivo. As to conditions: Minimal PBPK model; Derived using WinNonLin, ref Huang et al. (1986). From the text: Compound-specific physicochemical properties (e.g., pKa, fraction unbound in plasma, etc.) are detailed in Table S1B and were used to parameterize each model.

`CC(=O)N1CCN(c2ccc(OCC3COC(Cn4ccnc4)(c4ccc(Cl)cc4Cl)O3)cc2)CC1` (stereo not shown) [Ketoconazole] returned a Vss of 0.345 L/kg.
